# Data reported in paper PMC4496826, “Nanostructured lipid carriers for percutaneous administration of alkaloids isolated from Aconitum sinomontanum” (Journal of Nanobiotechnology, 2015).
# Structures can show the parent of a compound that is named as a salt.
# What was measured:
# [1] = Aqueous solubility in the release medium; type: physicochemical; settings: normal saline containing 20% PEG 400
# [2] = test system: mice; design: method as in ref 5 = [5]; 5. Guan YZ Shi YB Wang H Summary on the advanced research of lappaconite hydrobromide Theory Pr Chin Med 2005 15 1838 1840; settings: cited from earlier work
# [3] = design: method as in ref 6 = [6]; 6. Liang ZF Lyu YP Yuan W Liu YL Zhu XC Dose-effect relationship of lappaconitine Chin Pharmacol Bull 1993 9 146; settings: per os; cited from earlier work
# [4] = test system: rats; design: method as in ref 5 = [5]; 5. Guan YZ Shi YB Wang H Summary on the advanced research of lappaconite hydrobromide Theory Pr Chin Med 2005 15 1838 1840; settings: cited from earlier work
# [5] = test system: CCC-ESF cells; type: cell-based, human; settings: 30 min pre-incubation with inhibitor, vs. control
# Method: (§1) Endocytosis mechanisms were assessed using cellular uptake assays in the presence of chemicals known to inhibit specific endocytosis pathways. Cells were incubated with CPZ, FLP, GNT, CCD, DMA, NaN3, or MS (at […], respectively) for 30 min at 37°C. After exposure to these inhibitors, 200 µL of C6-labeled NLCs was added to each well and incubated for 30 min. After the incubation, cells were prepared for flow cytometry as described earlier and the data for at least 20,000 cells were acquired. The cells treated with C6-labeled NLCs alone were considered as the control cells.
# [6] = test system: HaCaT cells; assay: Endocytic pathway: uptake of C6-labeled NLCs in presence of endocytosis inhibitors; type: cell-based, human; settings: 30 min pre-incubation with inhibitor, vs. control
# Method: as §1
Molecule,effect on internalization/uptake of C6-labeled NLCs [5],further results
"CCN1C[C@]2(OC(=O)c3ccccc3NC(C)=O)CC[C@H](OC)[C@@]34[C@@H]2C[C@@H]([C@@H]13)[C@@]1(O)C[C@H](OC)[C@H]2C[C@@H]4[C@]1(O)[C@H]2OC [LA, lappaconitine]",,aqueous solubility in the medium [1]: 849.79 ± 36.95 µg/mL; oral LD50 [2]: 32.4 mg/kg; certain safety factor (CSF) [3]: 1.01; standard safety margin (SSM) [3]: 1.0%; oral LD50 [4]: 20 mg/kg
"CN(C)c1nc(N)c(C(=O)NC(=N)N)nc1Cl [DMA, 5-(N,N-dimethyl)-amiloride hydrochloride]",did not significantly affect,
"CN(C)CCCN1c2ccccc2Sc2ccc(Cl)cc21 [CPZ, chlorpromazine]",did not significantly affect,
monensin sodium [MS],did not significantly affect,
"C=C1[C@@H](C)[C@H]2[C@H](Cc3ccccc3)NC(=O)[C@]23[C@H](OC(C)=O)/C=C/[C@@](C)(O)C(=O)[C@@H](C)C/C=C/[C@H]3[C@@H]1O [CCD, cytochalasin D]",significantly inhibited,
"CCN1C[C@]2(OC(=O)c3ccccc3NC(C)=O)CC[C@H](OC)C34C1C(O)(C[C@@H]32)[C@@]1(O)C[C@H](OC)[C@H]2C[C@@H]4[C@]1(O)[C@H]2OC [RAN, ranaconitine]",,aqueous solubility in the medium [1]: 582.06 ± 16.27 µg/mL
"[N-]=[N+]=[N-].[Na+] [NaN3, sodium azide]",did not significantly affect,
"O=c1c(-c2ccc(O)cc2)coc2cc(O)cc(O)c12 [GNT, genistein]",did not significantly affect,
"CCCCC[C@@H](O)[C@H]1C(=O)O[C@H](C)[C@@H](O)/C=C/C=C/C=C/C=C/C=C(\C)[C@@H](O)C[C@H](O)C[C@H](O)C[C@H](O)C[C@H](O)C[C@H](O)C[C@@H]1O [FLP, filipin III]",significantly inhibited,effect on uptake of C6-labeled NLCs (average fluorescence intensity) [6]: significantly reduced
